According to ChEMBL document CHEMBL1201862, “PubChem BioAssay data set” (2004):
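Following 48 hours of exposure in 96-well plates, responses at five concentrations were used to interpolate endpoints linearly. GI50 = concentration required for 50% inhibition of growth.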 The source made the active and inactive calls. No stated cut-off is given here; in the data, active = GI50 up to about 1.1 µM and inactive = higher.

Key:
Test in all cases: inhibition of tumour cell growth, NCI panel, 48 h
[1] = tested on: U-251
[2] = tested on: OVCAR-8
[3] = tested on: MDA-MB-435
[4] = tested on: COLO 205
[5] = tested on: DU-145
[6] = tested on: SF-539
[7] = tested on: MDA-N
[8] = tested on: NCI-H226
[9] = tested on: SW-620
[10] = tested on: SR
[11] = tested on: SK-MEL-2
[12] = tested on: RXF 393
[13] = tested on: SF-295
[14] = tested on: PC-3
[15] = tested on: HOP-62
[16] = tested on: UACC-257
[17] = tested on: HL-60
[18] = tested on: HCT-116
[19] = tested on: SNB-78
[20] = tested on: M19-MEL

Measured: GI50

NNC(=O)CCC(NS(=O)(=O)c1ccc(Cl)cc1)C(=O)NN (centres undefined)
inactive: [1] > 100 µM | [2] > 100 µM | [3] > 100 µM | [4] > 100 µM | [5] > 100 µM | [6] > 100 µM | [7] > 100 µM | [8] > 100 µM | [9] > 100 µM | [10] > 100 µM | [11] > 100 µM | [12] > 100 µM | [13] > 100 µM | [14] > 100 µM | [15] > 100 µM | [16] > 100 µM | [17] > 100 µM | [18] > 100 µM

Nc1c(S(=O)(=O)c2ccc(Cl)cc2)c2nc3ccccc3nc2n2ccnc12
inactive: [1] 61.8 µM | [19] > 100 µM | [2] 48.4 µM | [4] > 100 µM | [6] 17.4 µM | [20] > 100 µM | [8] 18.3 µM | [11] > 100 µM | [13] > 100 µM | [16] > 100 µM | [17] 30.1 µM | [18] 44.3 µM

Cc1ccc2[nH]c3c(c2c1)CCC/C3=N/N=C(N)N
inactive: [1] 2.1 µM | [2] 1.91 µM | [3] 1.72 µM | [4] 1.62 µM | [5] 1.71 µM | [6] 1.62 µM | [7] 1.49 µM | [8] 2.11 µM | [9] 3.2 µM | [10] 2.22 µM | [11] 1.69 µM | [12] 2.15 µM | [13] 1.65 µM | [14] 2.64 µM | [15] 1.91 µM | [16] 2.51 µM | [17] 9.4 µM | [18] 2.79 µM

COc1cc(/C=C2/CCCc3ccccc3C2=O)cc(OC)c1OC
inactive: [1] 15.5 µM | [2] 13.7 µM | [3] 7.85 µM | [4] 18.2 µM | [5] 11.9 µM | [6] 18.6 µM | [7] 9.53 µM | [8] 9.62 µM | [9] 22.4 µM | [10] 2.74 µM | [11] 20.6 µM | [12] 28.9 µM | [13] 18.4 µM | [14] 10.1 µM | [15] 24.2 µM | [16] 12.9 µM | [17] 2.72 µM | [18] 6.65 µM

Cc1ccc(S(=O)(=O)N/N=C2\C3CC4CC(C3)C2C4)cc1 (centres undefined)
inactive: [1] > 100 µM | [2] > 100 µM | [3] > 100 µM | [4] > 100 µM | [5] > 10 µM | [6] > 100 µM | [7] > 100 µM | [8] > 100 µM | [9] > 100 µM | [10] > 100 µM | [11] > 100 µM | [12] > 100 µM | [13] > 100 µM | [14] > 100 µM | [15] > 100 µM | [16] > 100 µM | [17] > 100 µM | [18] > 10 µM

[O-][S+]1c2ccccc2N=C(c2ccc3ccccc3c2)CC1c1ccccc1F (centres undefined)
inactive: [1] > 100 µM | [2] > 100 µM | [4] > 100 µM | [6] > 100 µM | [20] > 100 µM | [8] 82.2 µM | [9] > 100 µM | [11] > 100 µM | [12] > 100 µM | [13] > 100 µM | [15] > 100 µM | [16] > 100 µM | [17] > 100 µM

N#CC(CCN1CCC(Nc2ccccc2)(c2nnnn2C2CCCCC2)CC1)(c1ccccc1)c1ccccc1
inactive: [1] > 100 µM | [2] > 100 µM | [3] > 100 µM | [4] > 100 µM | [5] 81.3 µM | [6] > 100 µM | [7] > 100 µM | [8] > 100 µM | [9] > 100 µM | [10] > 100 µM | [11] > 100 µM | [12] > 100 µM | [13] > 100 µM | [14] > 100 µM | [15] > 100 µM | [16] > 100 µM | [17] > 100 µM | [18] > 100 µM

CC1OC(OC2C(OC(=O)[C@]34CCC(C)(C)CC3C3=CCC5[C@@]6(C)C[C@H](O)[C@H](OC7OC(COC8OC(CO)C(O)C(O)C8O)C(O)C(O)C7O)[C@@](C)(C(=O)O)C6CC[C@@]5(C)C3(C)CC4)OCC(O)C2O)C(O)C(O)C1OC1OCC(O)C(O)C1O (some centres undefined)
inactive: [1] > 100 µM | [19] > 100 µM | [2] > 100 µM | [4] > 100 µM | [6] > 100 µM | [20] > 100 µM | [8] > 100 µM | [9] > 100 µM | [11] > 100 µM | [12] > 100 µM | [13] > 100 µM | [15] > 100 µM | [16] > 100 µM | [17] > 100 µM
